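In this assay, cells in 96-well plates receive the compound at five concentrations for 48 hours. Endpoints are linearly interpolated between the surrounding concentrations. Here, GI50 denotes the concentration required for 50% inhibition of growth. TGI: concentration producing complete growth inhibition.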
Key:
Experiment in all cases: NCI-60 cell line screen, 48 h
[1] = test system: SK-OV-3 ovarian
[2] = test system: NCI-H522 lung
[3] = test system: SF-539 CNS
[4] = test system: HCT-15 colon
[5] = test system: SN12C renal
[6] = test system: MOLT-4 leukemia
[7] = test system: RPMI-8226 leukemia
[8] = test system: SNB-19 CNS
[9] = test system: SF-268 CNS
[10] = test system: ACHN renal

Compound	GI50 [1] [µM]	TGI [1] [µM]	GI50 [2] [µM]	TGI [2] [µM]	GI50 [3] [µM]	TGI [3] [µM]	GI50 [4] [µM]	TGI [4] [µM]	GI50 [5] [µM]	TGI [5] [µM]	GI50 [6] [µM]	TGI [6] [µM]	GI50 [7] [µM]	TGI [7] [µM]	GI50 [8] [µM]	TGI [8] [µM]	GI50 [9] [µM]	TGI [9] [µM]	GI50 [10] [µM]	TGI [10] [µM]
COc1cccc(-n2ncc3c(N/N=C/c4ccncc4)ncnc32)c1	1.7	> 25	> 14.5	> 25	4.27	> 25	3.57	> 25	4.95	> 25	> 25	> 25	> 25	> 25	> 25	> 25	> 25	> 25	0.985	> 25
Nc1nc(Nc2ccc(C3CCC(N4CCOCC4)CC3)cc2)nn1-c1ccccn1 (stereo not drawn)	18.1	> 100	8.51	32.7	1.42	4.99	3.6	> 100	2.4	> 100	2.86	20.1	2.57	6.1	7.38	> 100	2.93	> 100	4.26	> 100
CC#CC(=O)SCCNC(=O)CC	–	> 10	–	3.14	–	> 10	–	> 10	–	> 10	–	> 8.86	–	> 10	–	> 10	–	> 10	–	> 10
Cc1cc(Cl)ccc1NC(=O)CC/C(CC(=O)C(C)C)=N\NC(=O)C[n+]1ccccc1	–	> 100	–	> 100	–	> 100	–	> 100	–	> 100	–	> 100	–	> 100	–	> 100	–	> 100	–	> 100
COc1ccc(OC)c(-c2c(C#N)c(N)nc(N3CCOCC3)c2C#N)c1	11.9	> 100	46.2	> 100	> 100	> 100	> 100	> 100	73	> 100	> 100	> 100	> 100	> 100	> 100	> 100	> 100	> 100	67.9	> 100
COc1ccc(OC)c2c1C(=O)C1CC1(Br)C2=O (stereo not drawn)	–	> 100	–	> 100	–	> 100	–	> 100	–	> 100	–	> 100	–	> 100	–	> 100	–	> 100	–	> 100
CC(=O)C1C(=O)C(=O)N(c2ccccc2C(C)C)C1=O (stereo not drawn)	–	> 100	–	> 100	–	> 100	–	> 100	–	> 100	–	> 100	–	> 100	–	> 100	–	> 100	–	> 100
O=C(/C=C/c1ccc([N+](=O)[O-])cc1)c1ccc2c3c(cccc13)CC2	33.1	> 91.3	9.77	34.5	2.63	7.72	5.07	> 100	> 34.6	> 100	1.27	11.3	1.64	4.84	3.36	17.4	8.18	> 100	47.9	> 100
COc1ccc(C(=O)c2cc3c(N)c(C(=O)Nc4cccc5ccccc45)sc3nc2C)cc1	0.429	> 50	0.226	> 50	0.126	–	0.192	> 50	0.32	> 50	0.308	> 50	0.184	–	0.208	> 50	0.529	> 50	0.364	> 50
Cc1ccc(S(=O)(=O)Nc2cccc3[nH]c(C(F)(F)F)nc23)cc1	1.34	25	0.15	0.696	0.427	2.06	0.408	> 100	2.72	> 89.2	0.605	29	0.772	13.7	0.972	> 100	1.87	54.6	0.799	> 60.6
CCc1ccc(NC(=O)COC(=O)c2cc([N+](=O)[O-])ccc2Sc2nnnn2C)cc1	27.1	> 100	11.5	36.3	16.7	42.8	13	37.3	33.2	> 100	20.3	81.6	6.73	41.4	16.5	52.1	14.5	70.7	14.2	33.1
CCOc1ccccc1N=Nc1c(C)[nH]n(-c2nc(-c3ccccc3)cs2)c1=O	38.9	> 100	22.1	87.6	27.5	> 100	> 100	> 100	> 94.8	> 100	> 100	> 100	> 100	> 100	43.1	> 100	35.4	> 100	42.3	> 100
CC1=C(CO)C(=O)O[C@@H]([C@@H](C)[C@H]2CC[C@H]3[C@@H]4C[C@@H](O)[C@@]5(O)CC=CC(=O)[C@]5(C)[C@H]4CC[C@]23C)C1	–	> 100	–	30.7	–	> 100	–	32.5	–	> 100	–	> 100	–	92.2	–	> 100	–	> 100	–	75.2
O=C(Nc1cccc(NC(=O)Nc2cc(C(F)(F)F)ccc2Cl)c1)Nc1cc(C(F)(F)F)ccc1Cl	2.9	11.3	1.21	7.78	6.15	32	0.566	> 100	2.56	23.9	5.19	> 100	1.87	50.7	1.77	14	5.19	34.2	0.983	11.2
Cc1ccc(CNc2c3ccccc3nc3cc(NC(=O)CCN4CCCC4)ccc23)cc1	1.1	2.79	0.509	1.95	0.618	1.9	1.29	2.63	0.479	1.74	0.316	1.32	0.412	1.94	0.624	1.92	0.819	2.31	0.541	1.74
COc1ccc(OC)c(NC(=O)CCC/C(CC(=O)c2ccc(O)c(OC)c2)=N\Nc2ccc([N+](=O)[O-])cc2)c1	–	> 100	–	> 100	–	> 100	–	> 100	–	> 100	–	> 100	–	> 100	–	> 100	–	> 100	–	> 100
COc1ccc(C2SC(C)C(=O)N2NC(=O)C(O)c2ccccc2)cc1OC (stereo not drawn)	> 100	> 100	> 100	> 100	> 100	> 100	> 100	> 100	> 100	> 100	> 100	> 100	> 100	> 100	> 100	> 100	> 100	> 100	> 100	> 100
O=C(NN1C(=O)CSC12CCCC2)c1[nH]c2ccc(Br)cc2c1-c1ccccc1	> 100	> 100	30.4	> 100	> 100	> 100	43.2	> 100	25.9	77	21.9	90.4	30.2	86.5	54.1	> 100	52.1	> 100	> 100	> 100
C[CH2][Sn]([CH2]C)([O]C(=O)C(OC(C)=O)c1ccccc1)[O]C(=O)C(OC(C)=O)c1ccccc1 (stereo not drawn)	> 100	> 100	1.58	4.35	17.5	33	25.7	82.3	> 100	> 100	17.2	60.9	11.2	36.9	52	> 100	16.6	31.8	17.3	31.1
COc1c(Cl)cc(NC(=S)C#N)cc1Cl	–	> 74.7	–	52.8	–	59	–	46.8	–	53.5	–	> 100	–	> 58.7	–	> 100	–	> 89.9	–	> 80.1
CC1(C)[C@@H](OC(N)=O)[C@H]2O[C@H]2[C@]2(CO)[C@H]3CC[C@]4(C)[C@@H](c5ccc(=O)oc5)[C@@H](Cl)C[C@]4(O)C3=CC[C@@H]12	0.00661	0.018	0.00455	0.0147	0.00453	0.00951	0.00798	0.0304	0.00766	0.0325	0.00519	0.0144	< 0.011	0.126	0.0161	0.0509	0.00457	0.00892	0.00515	0.0118

Reference: PubChem BioAssay (NCI)
